Patent publication US20240158348A1, “HERBICIDAL CYCLIC AMIDES N-SUBSTITUTED WITH A HALOALKYLSULFONYLANILIDE GROUP” (FMC Corporation, priority 2021, published 2024)

Assays:
Type in all cases: in vivo
corn (Zea mays) = assay: Test C preemergence, corn; conditions: 0 is no effect, 100 is complete control
In short: (§1)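 Herbicidal effect was estimated visually on a 0–100 scale 10 or 12 days after spraying. Formulation: non-phytotoxic solvent mixture with surfactant. Timing: directed soil spray after sowing, or postemergence on seedlings bearing one or two leaves.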

[1] = tested on: goosegrass (Eleusine indica); assay: Test C preemergence, goosegrass; conditions: 0 is no effect, 100 is complete control
In short: as §1

kochia (Bassia scoparia) [2] = assay: Test C preemergence, kochia; conditions: 0 is no effect, 100 is complete control
In short: (§2)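 Visual injury rating, 0 (no effect) to 100 (complete control), versus untreated controls after 10 or 12 days in the greenhouse. Compounds were formulated in non-phytotoxic solvent plus surfactant and applied either as a directed soil spray at sowing or onto emerged one- to two-leaf plants.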

[3] = tested on: foxtail, giant (giant foxtail, Setaria faberi); assay: Test C postemergence, giant foxtail; conditions: for Foxtail, Giant plant response rating: visual injury, 0 to 100 scale (0 no effect, 100 complete control); for Plant response rating (0 to 100 scale), Foxtail, Giant: 0 is no effect, 100 is complete control
kochia (Bassia scoparia) [4] = assay: Test C postemergence, kochia; conditions: for Kochia plant response rating: visual injury, 0 to 100 scale (0 no effect, 100 complete control); for Plant response rating (0 to 100 scale), Kochia: 0 is no effect, 100 is complete control
In short: as §2

[5] = tested on: ragweed (common ragweed, Ambrosia artemisiifolia); assay: Test C postemergence, ragweed; conditions: for Ragweed plant response rating: visual injury, 0 to 100 scale (0 no effect, 100 complete control); for Plant response rating (0 to 100 scale), Ragweed: 0 is no effect, 100 is complete control
In short: as §2

[6] = tested on: horseweed (Erigeron canadensis); assay: Test C postemergence, horseweed; conditions: for Horseweed plant response rating: visual injury, 0 to 100 scale (0 no effect, 100 complete control); for Plant response rating (0 to 100 scale), Horseweed: 0 is no effect, 100 is complete control
In short: as §2

[7] = tested on: barnyardgrass (Echinochloa crusgalli); assay: Test D flooded paddy test, barnyardgrass; parameters: key: 0 = no effect, 100 = complete control; conditions: 250 g ai/ha, Flood; applied to paddy water at 2-leaf stage; visual rating after 13 days; scale 0 (no effect) to 100 (complete control)
In short: (§3)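 Plants were grown to the 2-leaf stage, then pots were flooded to 3 cm above soil and compounds applied directly into the paddy water, with that depth held throughout. After 13 days in a greenhouse, injury was visually rated against untreated controls on a 0–100 scale (0 no effect, 100 complete control).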

rice (Oryza sativa) = assay: Test D flooded paddy test, rice; parameters: key: 0 = no effect, 100 = complete control; conditions: 250 g ai/ha, Flood; applied to paddy water at 2-leaf stage; visual rating after 13 days; scale 0 (no effect) to 100 (complete control)
In short: as §3

Structure (SMILES)	Plant response rating (0 to 100 scale), Corn (corn (Zea mays); 31 g ai/ha Preemergence)	Plant response rating (0 to 100 scale), Corn (corn (Zea mays); 125 g ai/ha Preemergence)	Plant response rating (0 to 100 scale), Goosegrass ([1]; 31 g ai/ha Preemergence)	Plant response rating (0 to 100 scale), Goosegrass ([1]; 125 g ai/ha Preemergence)	Plant response rating (0 to 100 scale), Kochia (kochia (Bassia scoparia) [2]; 31 g ai/ha Preemergence)	Plant response rating (0 to 100 scale), Kochia (kochia (Bassia scoparia) [2]; 125 g ai/ha Preemergence)	Foxtail, Giant plant response rating ([3]; 31 g ai/ha Postemergence)	Plant response rating (0 to 100 scale), Foxtail, Giant ([3]; 125 g ai/ha Postemergence)	Kochia plant response rating (kochia (Bassia scoparia) [4]; 31 g ai/ha Postemergence)	Plant response rating (0 to 100 scale), Kochia (kochia (Bassia scoparia) [4]; 125 g ai/ha Postemergence)	Ragweed plant response rating ([5]; 31 g ai/ha Postemergence)	Plant response rating (0 to 100 scale), Ragweed ([5]; 125 g ai/ha Postemergence)	Horseweed plant response rating ([6]; 31 g ai/ha Postemergence)	Plant response rating (0 to 100 scale), Horseweed ([6]; 125 g ai/ha Postemergence)	Plant response rating, Barnyardgrass [7]	Plant response rating, Rice (rice (Oryza sativa))	Ragweed plant response rating ([5]; 125 g ai/ha Postemergence)	Foxtail, Giant plant response rating ([3]; 125 g ai/ha Postemergence)	Kochia plant response rating (kochia (Bassia scoparia) [4]; 125 g ai/ha Postemergence)	Horseweed plant response rating ([6]; 125 g ai/ha Postemergence)
CCOC(=O)N(c1cc(N2CCC(OC3CC3)C2=O)c(C)cc1C)S(=O)(=O)C(F)(F)F (stereo not shown) [Compound 19]	0	0	0	70	0	70	0	20	30	70	60	90	10	30	0	0				
CCCC(=O)OCN(c1cc(N2CCC(OC3CC3)C2=O)c(C)cc1C)S(=O)(=O)C(F)(F)F (stereo not shown) [Compound 20]	60	90	100	100	80	100	80	90	70	80	80	90	60	90	90	15				
Cc1cc(C)c(N(C(=O)OCC(C)C)S(=O)(=O)C(F)(F)F)cc1N1CCC(OC2CC2)C1=O (stereo not shown) [Compound 21]	20	90	90	100	60	90	40	90	70	80	80	90	60	90	95	85				
Cc1cc(C)c(N2CCC(OCC3CC3)C2=O)cc1NS(=O)(=O)C(F)(F)F (stereo not shown) [Compound 22]	90	90	100	100	90	100	20	60	60	70	60	80	90	90	90	55				
Cc1c(N2CCC(OC3CC3)C2=O)cc(N(COC(=O)C(C)(C)C)S(=O)(=O)C(F)(F)F)c(C)c1F (stereo not shown) [Compound 23]	10	20	70	100	20	90	0	80	30	80	90	90	80	90	95	40				
Cc1cc(Cl)c(N(COC(=O)C(C)(C)C)S(=O)(=O)C(F)(F)F)cc1N1CCC(OC2CC2)C1=O (stereo not shown) [Compound 33]	30	60	90	100	100	100	50	90	80	90	90		70	100	90	45	90			
Cc1cc(C)c(N2CCC(OC3COC3)C2=O)cc1NS(=O)(=O)C(F)(F)F (stereo not shown) [Compound 34]	10	80	30	100	90	100	40	90	80	90	90		90	100	35	25	90			
Cc1c(NS(=O)(=O)C(F)(F)F)cc(N2CCCC(OC3CC3)C2=O)c(C)c1F (stereo not shown) [Compound 35]	30	50	100	100	20	80	40	90	50	90	60		90	100	0	0	90			
Cc1c(N2CCCC(OC3CC3)C2=O)cc(N(COC(=O)C(C)(C)C)S(=O)(=O)C(F)(F)F)c(C)c1F (stereo not shown) [Compound 37]	0	10	50	100	0	90	10	80	50	70	60		80	80	90	0	90			
CC(=O)N(c1cc(N2CCC(OC3CC3)C2=O)c(C)cc1Cl)S(=O)(=O)C(F)(F)F (stereo not shown) [Compound 38]	20	80	100	100	100	100	50	90	80	90	80		90	100	0	0	90			
Cc1c(N2CCCC(OC3CCC3)C2=O)cc(N(COC(=O)C(C)(C)C)S(=O)(=O)C(F)(F)F)c(C)c1F (stereo not shown) [Compound 39]	0	10	10	60	20	60	0	10	30	60	30		70	90	35	0	80			
COC(=O)N(c1cc(N2CCC(OC3CC3)C2=O)c(C)cc1Cl)S(=O)(=O)C(F)(F)F (stereo not shown) [Compound 40]	50	90	100	100	90	100	50	90	70	90	60		80	80	0	0	80			
Cc1cc(C)c(N2CCC(OCC3CC3(F)F)C2=O)cc1NS(=O)(=O)C(F)(F)F (stereo not shown) [Compound 41]	90	100	90	100	100	100	20		70		50		70		15	10	70	90	80	100
